Test results: patent publication US12215140B2, “Method of stabilizing protein contained in specimen and solution for stabilizing protein contained in specimen” (EIKEN KAGAKU KABUSHIKI KAISHA, priority 2018, dated 2025)

Test system: hemoglobin-haptoglobin complex
Experiment: Stability of hemoglobin (as hemoglobin-haptoglobin complex) in samples preserved at 37° C. in preservation solution containing 1 unit/L haptoglobin, Hb measured by latex agglutination method (Examples 1 to 7)
Set-up: species or system human
Details: arylboronic acid 15 mmol/L
Procedure: Preservation solutions were prepared with the addition of 40 mmol/L HEPES (pH 6.8), 0.1% BSA, 0.1% NaN3, 1 unit/L haptoglobin, and 0 to 100 mmol/L phenylboronic acid. Samples obtained by adding hemoglobin-added fecal specimens to the preservation solutions so that the fecal concentration would be 0.5% were preserved at 37° C. for 0, 7, 14, and 21 days. The fecal specimens were added with hemoglobin having an amount such that the hemoglobin concentration in the samples would be about 300 μg/L. Instead of the fecal specimens to which hemoglobin was added, samples containing no fecal specimens, in which hemoglobin was added to the preservation solutions so that the hemoglobin concentration in the samples would be 300 μg/L, were similarly preserved. The hemoglobin (Hb) concentrations (μg/L) in the preserved samples were measured by the latex agglutination method.
The concentrations of hemoglobin were measured using “OC-Hemodia (registered trademark) Auto III ‘EIKEN’” (available from EIKEN CHEMICAL CO., LTD.) as a measurement reagent and “OC-sensor DIANA” (available from EIKEN CHEMICAL CO., LTD.) as a measurement device. The above measurement reagent contains latex particles immobilizing an anti-human hemoglobin rabbit polyclonal antibody.
From the measured concentrations of hemoglobin, the recovery ratios (%) were calculated with respect to the hemoglobin concentrations immediately after the fecal specimens were added to the preservation solutions (i.e., concentrations 0 days after the fecal specimens were added).
(§1) For comparative examples, preservation solutions to which no arylboronic acid was added were prepared, and testing was conducted in the same manner.
(§2) The concentration of phenylboronic acid in the preservation solutions of Example 1 was fixed to 15 mmol/L, preservation solutions to which a sugar (sorbitol, sucrose, trehalose, glucose, fructose, or mannitol) was further added at 50 mmol/L or 100 mmol/L or preservation solutions to which no sugar was added were prepared, and testing was conducted in the same manner as in Example 1. For comparative examples, preservation solutions to which the phenylboronic acid and sugar were not added were prepared, and testing was conducted in the same manner.
Preservation solutions in which sorbitol, sucrose, trehalose, glucose, fructose, or mannitol was added at 100 mmol/L to the preservation solutions of Example 1 containing no phenylboronic acid were prepared, and testing was conducted in the same manner as in Example 1. For comparison, the same testing was conducted without adding these sugars.
as §2, with “sorbitol” for “a sugar (sorbitol, sucrose, trehalose, glucose, fructose, or mannitol)”, “was” for “was further”, “10 to 500” for “50”, “sucrose was added at 10 to 250” for “100”
as §1

[1] = Feces 1, sugar (if added) 100 mmol/L, 0 days at 37° C.
[2] = Feces 1, sugar (if added) 100 mmol/L, 7 days at 37° C.
[3] = Feces 1, sugar (if added) 100 mmol/L, 14 days at 37° C.
[4] = Feces 2, sugar (if added) 100 mmol/L, 0 days at 37° C.
[5] = Feces 2, sugar (if added) 100 mmol/L, 7 days at 37° C.
[6] = Feces 2, sugar (if added) 100 mmol/L, 14 days at 37° C.
[7] = Feces 3, sugar (if added) 100 mmol/L, 0 days at 37° C.
[8] = Feces 3, sugar (if added) 100 mmol/L, 7 days at 37° C.
[9] = Feces 3, sugar (if added) 100 mmol/L, 14 days at 37° C.
[10] = No feces, sugar (if added) 100 mmol/L, 0 days at 37° C.
[11] = No feces, sugar (if added) 100 mmol/L, 7 days at 37° C.
[12] = No feces, sugar (if added) 100 mmol/L, 14 days at 37° C.

O=C(O)c1cccc(B(O)O)c1 [3C-PBA, 3-carboxyphenylboronic acid]
Hb concentration [1]: 309 µg/L | Recovery ratio with respect to Hb after 0 days [1]: 100% | Hb concentration [2]: 249 µg/L | Recovery ratio with respect to Hb after 0 days [2]: 81% | Hb concentration [3]: 239 µg/L | Recovery ratio with respect to Hb after 0 days [3]: 77% | Hb concentration (Feces 1, 37° C., 0 days): 309 µg/L | Recovery ratio with respect to Hb after 0 days (Feces 1, 37° C., 0 days): 100% | Hb concentration (Feces 1, 37° C., 7 days): 249 µg/L | Recovery ratio with respect to Hb after 0 days (Feces 1, 37° C., 7 days): 81% | Hb concentration (Feces 1, 37° C., 14 days): 239 µg/L | Recovery ratio with respect to Hb after 0 days (Feces 1, 37° C., 14 days): 77% | Hb concentration [4]: 309 µg/L | Recovery ratio with respect to Hb after 0 days [4]: 100% | Hb concentration [5]: 264 µg/L | Recovery ratio with respect to Hb after 0 days [5]: 85% | Hb concentration [6]: 240 µg/L | Recovery ratio with respect to Hb after 0 days [6]: 78% | Hb concentration (Feces 2, 37° C., 0 days): 309 µg/L | Recovery ratio with respect to Hb after 0 days (Feces 2, 37° C., 0 days): 100% | Hb concentration (Feces 2, 37° C., 7 days): 264 µg/L | Recovery ratio with respect to Hb after 0 days (Feces 2, 37° C., 7 days): 85% | Hb concentration (Feces 2, 37° C., 14 days): 240 µg/L | Recovery ratio with respect to Hb after 0 days (Feces 2, 37° C., 14 days): 78% | Hb concentration [7]: 300 µg/L | Recovery ratio with respect to Hb after 0 days [7]: 100% | Hb concentration [8]: 213 µg/L | Recovery ratio with respect to Hb after 0 days [8]: 71% | Hb concentration [9]: 200 µg/L | Recovery ratio with respect to Hb after 0 days [9]: 67% | Hb concentration (Feces 3, 37° C., 0 days): 300 µg/L | Recovery ratio with respect to Hb after 0 days (Feces 3, 37° C., 0 days): 100% | Hb concentration (Feces 3, 37° C., 7 days): 213 µg/L | Recovery ratio with respect to Hb after 0 days (Feces 3, 37° C., 7 days): 71% | Hb concentration (Feces 3, 37° C., 14 days): 200 µg/L | Recovery ratio with respect to Hb after 0 days (Feces 3, 37° C., 14 days): 67% | Hb concentration [10]: 293 µg/L | Recovery ratio with respect to Hb after 0 days [10]: 100% | Hb concentration [11]: 281 µg/L | Recovery ratio with respect to Hb after 0 days [11]: 96% | Hb concentration [12]: 276 µg/L | Recovery ratio with respect to Hb after 0 days [12]: 94% | Hb concentration (No feces, 37° C., 0 days): 293 µg/L | Recovery ratio with respect to Hb after 0 days (No feces, 37° C., 0 days): 100% | Hb concentration (No feces, 37° C., 7 days): 281 µg/L | Recovery ratio with respect to Hb after 0 days (No feces, 37° C., 7 days): 96% | Hb concentration (No feces, 37° C., 14 days): 276 µg/L | Recovery ratio with respect to Hb after 0 days (No feces, 37° C., 14 days): 94%

OB(O)c1cccc(O)c1 [3H-PBA, 3-hydroxyphenylboronic acid]
Hb concentration [1]: 327 µg/L | Recovery ratio with respect to Hb after 0 days [1]: 100% | Hb concentration [2]: 269 µg/L | Recovery ratio with respect to Hb after 0 days [2]: 82% | Hb concentration [3]: 268 µg/L | Recovery ratio with respect to Hb after 0 days [3]: 82% | Hb concentration (Feces 1, 37° C., 0 days): 327 µg/L | Recovery ratio with respect to Hb after 0 days (Feces 1, 37° C., 0 days): 100% | Hb concentration (Feces 1, 37° C., 7 days): 269 µg/L | Recovery ratio with respect to Hb after 0 days (Feces 1, 37° C., 7 days): 82% | Hb concentration (Feces 1, 37° C., 14 days): 268 µg/L | Recovery ratio with respect to Hb after 0 days (Feces 1, 37° C., 14 days): 82% | Hb concentration [4]: 326 µg/L | Recovery ratio with respect to Hb after 0 days [4]: 100% | Hb concentration [5]: 277 µg/L | Recovery ratio with respect to Hb after 0 days [5]: 85% | Hb concentration [6]: 264 µg/L | Recovery ratio with respect to Hb after 0 days [6]: 81% | Hb concentration (Feces 2, 37° C., 0 days): 326 µg/L | Recovery ratio with respect to Hb after 0 days (Feces 2, 37° C., 0 days): 100% | Hb concentration (Feces 2, 37° C., 7 days): 227 µg/L | Recovery ratio with respect to Hb after 0 days (Feces 2, 37° C., 7 days): 85% | Hb concentration (Feces 2, 37° C., 14 days): 264 µg/L | Recovery ratio with respect to Hb after 0 days (Feces 2, 37° C., 14 days): 81% | Hb concentration [7]: 313 µg/L | Recovery ratio with respect to Hb after 0 days [7]: 100% | Hb concentration [8]: 213 µg/L | Recovery ratio with respect to Hb after 0 days [8]: 68% | Hb concentration [9]: 206 µg/L | Recovery ratio with respect to Hb after 0 days [9]: 66% | Hb concentration (Feces 3, 37° C., 0 days): 313 µg/L | Recovery ratio with respect to Hb after 0 days (Feces 3, 37° C., 0 days): 100% | Hb concentration (Feces 3, 37° C., 7 days): 213 µg/L | Recovery ratio with respect to Hb after 0 days (Feces 3, 37° C., 7 days): 68% | Hb concentration (Feces 3, 37° C., 14 days): 206 µg/L | Recovery ratio with respect to Hb after 0 days (Feces 3, 37° C., 14 days): 66% | Hb concentration [10]: 303 µg/L | Recovery ratio with respect to Hb after 0 days [10]: 100% | Hb concentration [11]: 294 µg/L | Recovery ratio with respect to Hb after 0 days [11]: 97% | Hb concentration [12]: 296 µg/L | Recovery ratio with respect to Hb after 0 days [12]: 98% | Hb concentration (No feces, 37° C., 0 days): 303 µg/L | Recovery ratio with respect to Hb after 0 days (No feces, 37° C., 0 days): 100% | Hb concentration (No feces, 37° C., 7 days): 294 µg/L | Recovery ratio with respect to Hb after 0 days (No feces, 37° C., 7 days): 97% | Hb concentration (No feces, 37° C., 14 days): 296 µg/L | Recovery ratio with respect to Hb after 0 days (No feces, 37° C., 14 days): 98%
